Data on 19 molecules can be found in US10479795B2 (Incyte Corporation, priority 2016, dated 2019).

Experiment [1] has as its system Phosphorylated Ribosomal Protein S6 (RPS6). In words: THP-1 RPS6 ELISA Assay. To be noted: Homo sapiens; THP-1 cells; read-out: PI3Kγ_THP1_RPS6_ELISA IC50. In kind it is cell-based, Human. In short, it runs like this: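 IC50 values come from a curve of percent inhibition against log compound concentration, using phospho-RPS6 ELISA (450 nm) on THP-1 lysates. Cells were serum-starved overnight, exposed to compound for 2 h at 37 °C, then challenged 15 min with 10 nM MCP-1.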
On the technique in general: In an ELISA, binding on a coated surface is turned into a signal by an enzyme label.

For experiment [2], the target named is PI3Kγ (p110γ) Recombinant Human Protein (Homo sapiens (Human), UniProt P48736). As to the kind of experiment: PI3K-γ Scintillation Proximity Assay. The format is biochemical. To be noted: read-out: PI3Kγ IC50. In short, it runs like this:
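Radiometric SPA readout: […] bound to WGA beads after overnight shaking, IC50 derived from % activity of DMSO control. Reaction used human p110γ, 2 μM ATP, 20 μM PIP2, pH 6.7 MOPS buffer with MgCl2, DTT, CHAPS, 2% DMSO, room temperature.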
A general note: Scintillation proximity formats need no separation of bound from free tracer.

In experiment [3] the target is PI3Kδ (p110δ/p85α) Recombinant Human Protein (Homo sapiens (Human), UniProt O00329). As to the kind of experiment: PI3Kδ Scintillation Proximity Assay. The format is biochemical. In short, it runs like this:
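Radiometric read-out: 33P-labelled PIP3 product captured on WGA SPA beads and counted, with IC50 fitted from percent activity relative to DMSO control. Enzyme (3.4 nM) was incubated 120 min at room temperature with 20 μM PIP2 and 2 μM ATP at pH 6.7, 2% DMSO.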

Where a name gives a salt, the structure may show the parent alone. Some results are limits rather than exact numbers.

Chain of PI3Kγ (p110γ) Recombinant Human Protein (P48736 whole entry): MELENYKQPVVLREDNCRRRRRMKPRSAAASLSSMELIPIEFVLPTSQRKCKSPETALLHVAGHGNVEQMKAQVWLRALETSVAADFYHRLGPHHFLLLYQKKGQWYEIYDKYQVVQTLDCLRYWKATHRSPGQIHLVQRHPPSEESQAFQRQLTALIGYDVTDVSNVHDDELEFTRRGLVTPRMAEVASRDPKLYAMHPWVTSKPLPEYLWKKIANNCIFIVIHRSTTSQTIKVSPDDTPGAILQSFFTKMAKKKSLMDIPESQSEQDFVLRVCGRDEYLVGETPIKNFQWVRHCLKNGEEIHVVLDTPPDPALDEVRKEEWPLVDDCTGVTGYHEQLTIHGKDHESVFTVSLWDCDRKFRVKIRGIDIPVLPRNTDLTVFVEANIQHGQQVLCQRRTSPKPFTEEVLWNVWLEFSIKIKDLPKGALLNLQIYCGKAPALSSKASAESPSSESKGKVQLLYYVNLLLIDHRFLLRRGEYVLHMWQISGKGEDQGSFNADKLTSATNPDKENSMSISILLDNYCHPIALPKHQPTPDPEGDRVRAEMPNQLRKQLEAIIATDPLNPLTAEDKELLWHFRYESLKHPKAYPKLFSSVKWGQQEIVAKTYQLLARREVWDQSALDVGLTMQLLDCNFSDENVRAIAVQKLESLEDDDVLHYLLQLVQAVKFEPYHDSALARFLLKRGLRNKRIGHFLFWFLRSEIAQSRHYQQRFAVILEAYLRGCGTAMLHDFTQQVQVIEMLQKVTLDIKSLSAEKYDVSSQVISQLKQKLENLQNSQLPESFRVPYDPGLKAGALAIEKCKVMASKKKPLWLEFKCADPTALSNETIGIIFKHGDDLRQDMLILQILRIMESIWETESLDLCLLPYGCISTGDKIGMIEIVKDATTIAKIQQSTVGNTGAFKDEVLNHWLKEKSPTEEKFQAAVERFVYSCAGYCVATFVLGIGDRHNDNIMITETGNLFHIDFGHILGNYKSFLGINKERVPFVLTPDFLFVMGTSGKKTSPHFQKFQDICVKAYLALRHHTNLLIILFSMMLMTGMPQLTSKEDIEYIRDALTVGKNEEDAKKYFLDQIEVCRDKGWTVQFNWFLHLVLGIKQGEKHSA
Chain of PI3Kδ (p110δ/p85α) Recombinant Human Protein (O00329 whole entry): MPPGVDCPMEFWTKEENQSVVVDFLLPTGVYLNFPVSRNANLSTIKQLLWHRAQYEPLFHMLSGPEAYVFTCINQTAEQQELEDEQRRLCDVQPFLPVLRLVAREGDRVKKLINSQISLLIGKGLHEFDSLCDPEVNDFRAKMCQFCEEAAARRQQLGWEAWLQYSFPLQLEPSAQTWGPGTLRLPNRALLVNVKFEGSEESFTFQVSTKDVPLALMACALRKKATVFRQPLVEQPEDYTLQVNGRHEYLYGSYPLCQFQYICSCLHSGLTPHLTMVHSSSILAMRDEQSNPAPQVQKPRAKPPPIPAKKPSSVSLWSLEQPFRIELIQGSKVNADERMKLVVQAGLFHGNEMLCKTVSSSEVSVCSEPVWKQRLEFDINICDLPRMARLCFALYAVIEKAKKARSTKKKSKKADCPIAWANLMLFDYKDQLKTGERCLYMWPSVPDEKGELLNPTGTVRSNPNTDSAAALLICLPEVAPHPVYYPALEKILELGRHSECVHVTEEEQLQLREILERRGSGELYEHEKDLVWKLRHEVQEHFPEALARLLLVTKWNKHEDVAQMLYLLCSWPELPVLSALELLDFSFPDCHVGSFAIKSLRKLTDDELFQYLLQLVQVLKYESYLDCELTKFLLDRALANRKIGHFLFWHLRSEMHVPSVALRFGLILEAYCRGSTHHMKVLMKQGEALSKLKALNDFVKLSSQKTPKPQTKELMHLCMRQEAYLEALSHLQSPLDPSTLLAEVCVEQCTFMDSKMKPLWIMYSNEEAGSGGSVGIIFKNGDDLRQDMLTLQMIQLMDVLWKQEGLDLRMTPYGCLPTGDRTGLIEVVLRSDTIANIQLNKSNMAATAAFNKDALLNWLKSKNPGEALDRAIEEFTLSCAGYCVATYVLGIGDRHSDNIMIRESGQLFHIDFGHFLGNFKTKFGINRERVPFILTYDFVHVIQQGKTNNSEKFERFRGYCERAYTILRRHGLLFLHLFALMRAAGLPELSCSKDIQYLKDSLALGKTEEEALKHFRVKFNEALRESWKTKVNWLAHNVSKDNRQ
Chain of PI3Kδ (p110δ/p85α) Recombinant Human Protein (P27986 whole entry partner): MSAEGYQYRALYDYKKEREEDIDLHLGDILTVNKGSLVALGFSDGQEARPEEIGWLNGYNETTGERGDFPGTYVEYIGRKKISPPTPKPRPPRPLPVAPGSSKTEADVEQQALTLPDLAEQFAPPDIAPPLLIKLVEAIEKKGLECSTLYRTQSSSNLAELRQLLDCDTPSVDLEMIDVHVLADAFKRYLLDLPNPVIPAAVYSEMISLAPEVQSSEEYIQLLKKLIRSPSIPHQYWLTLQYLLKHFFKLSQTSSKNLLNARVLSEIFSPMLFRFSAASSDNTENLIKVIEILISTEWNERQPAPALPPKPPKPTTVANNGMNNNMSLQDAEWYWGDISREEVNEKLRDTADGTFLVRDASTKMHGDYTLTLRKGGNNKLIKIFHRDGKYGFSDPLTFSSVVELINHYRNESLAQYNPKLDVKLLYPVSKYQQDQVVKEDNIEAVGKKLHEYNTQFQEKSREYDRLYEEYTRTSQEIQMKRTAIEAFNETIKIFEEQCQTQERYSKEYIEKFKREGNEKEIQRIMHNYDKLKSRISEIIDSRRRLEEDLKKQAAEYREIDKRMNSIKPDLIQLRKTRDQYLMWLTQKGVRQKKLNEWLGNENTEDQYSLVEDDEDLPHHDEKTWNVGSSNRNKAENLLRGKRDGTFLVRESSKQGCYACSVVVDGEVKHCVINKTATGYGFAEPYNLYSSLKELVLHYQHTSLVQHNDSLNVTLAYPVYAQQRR

As for `Cc1ccc(S(=O)(=O)NC23CC(C(F)F)(C2)C3)cc1-c1cnc2c(N)nc(C(F)(F)F)cn12` [Example 278, 3-(8-Amino-6-(trifluoromethyl)imidazo[1,2-a]pyrazin-3-yl)-N-(3-(difluoromethyl)bicyclo[1.1.1]pentan-1-yl)-4-methylbenzenesulfonamide trifluoroacetate salt], the IC50 is less than 100 nM in experiment [1], less than 100 nM in experiment [2] and 100 to 500 nM in experiment [3].

Consider `Cc1ccc(S(=O)(=O)NC23CC(c4cnco4)(C2)C3)cc1-c1cnc2c(N)nc(C(F)(F)F)cn12` [Example 279, 3-(8-Amino-6-(trifluoromethyl)imidazo[1,2-a]pyrazin-3-yl)-4-methyl-N-(3-(oxazol-5-yl)bicyclo[1.1.1]pentan-1-yl)benzenesulfonamide trifluoroacetate salt], for which the IC50 in experiment [1], in experiment [2] and in experiment [3] was less than 100 nM throughout.

For `Cc1ccc(S(=O)(=O)NC23CC(Cn4cncn4)(C2)C3)cc1-c1cnc2c(N)nc(C(F)(F)F)cn12` [Example 280, N-(3-((1H-1,2,4-triazol-1-yl)methyl)bicyclo[1.1.1]pentan-1-yl)-3-(8-amino-6-(trifluoromethyl)imidazo[1,2-a]pyrazin-3-yl)-4-methylbenzenesulfonamide], the IC50 in experiment [1] is 100 to 500 nM; in experiment [2], less than 100 nM; in experiment [3], 100 to 500 nM.

As to `Cc1ccc(S(=O)(=O)NC23CCC(C#N)(C2)C3)cc1-c1cnc2c(N)nc(C(F)(F)F)cn12` [Example 281, 3-(8-Amino-6-(trifluoromethyl)imidazo[1,2-a]pyrazin-3-yl)-N-(4-cyanobicyclo[2.1.1]hexan-1-yl)-4-methylbenzenesulfonamide trifluoroacetate salt], the IC50 is 100 to 500 nM in experiment [1], less than 100 nM in experiment [2] and 100 to 500 nM in experiment [3].

With `Cc1ccc(S(=O)(=O)NC23CC(C(C)(C)O)(C2)C3)cc1-c1cnc2c(N)nc(C(F)(F)F)cn12` [Example 282, 3-(8-Amino-6-(trifluoromethyl)imidazo[1,2-a]pyrazin-3-yl)-N-(3-(2-hydroxypropan-2-yl)bicyclo[1.1.1]pentan-1-yl)-4-methylbenzenesulfonamide trifluoroacetate salt], the results for the IC50 in experiment [1], in experiment [2] and in experiment [3] were less than 100 nM, less than 100 nM and 100 to 500 nM, respectively.

Consider `Cc1ccc(S(=O)(=O)NC23CC(Cn4cccn4)(C2)C3)cc1-c1cnc2c(N)nc(C(F)(F)F)cn12` [Example 283, N-(3-((1H-pyrazol-1-yl)methyl)bicyclo[1.1.1]pentan-1-yl)-3-(8-amino-6-(trifluoromethyl)imidazo[1,2-a]pyrazin-3-yl)-4-methylbenzenesulfonamide trifluoroacetate salt], for which the IC50 in experiment [1] was 100 to 500 nM; in experiment [2], less than 100 nM; in experiment [3], 100 to 500 nM.

For the molecule `Cc1ccc(S(=O)(=O)NC23CC(Cn4ccnc4)(C2)C3)cc1-c1cnc2c(N)nc(C(F)(F)F)cn12` [Example 284, N-(3-((1H-imidazol-1-yl)methyl)bicyclo[1.1.1]pentan-1-yl)-3-(8-amino-6-(trifluoromethyl)imidazo[1,2-a]pyrazin-3-yl)-4-methylbenzenesulfonamide trifluoroacetate salt], the results for the IC50 in experiment [1], in experiment [2] and in experiment [3] were 100 to 500 nM, less than 100 nM and 100 to 500 nM, respectively.

For `Cc1ccc(S(=O)(=O)NC23CC(F)(C2)C3)cc1-c1cnc2c(N)nc(C(F)(F)F)cn12` [Example 285, 3-(8-Amino-6-(trifluoromethyl)imidazo[1,2-a]pyrazin-3-yl)-N-(3-fluorobicyclo[1.1.1]pentan-1-yl)-4-methylbenzenesulfonamide trifluoroacetate salt], the values for the IC50 in experiment [1], in experiment [2] and in experiment [3] were 100 to 500 nM, less than 100 nM and 100 to 500 nM, respectively.

Turning to `Cc1ccc(S(=O)(=O)NC23CC(CF)(C2)C3)cc1-c1cnc2c(N)nc(C(F)(F)F)cn12` [Example 286, 3-(8-Amino-6-(trifluoromethyl)imidazo[1,2-a]pyrazin-3-yl)-N-(3-(fluoromethyl)bicyclo[1.1.1]pentan-1-yl)-4-methylbenzenesulfonamide trifluoroacetate salt], the IC50 in experiment [1] was less than 100 nM; in experiment [2] it was less than 100 nM; in experiment [3], 100 to 500 nM.

Take `Cc1ccc(S(=O)(=O)NC23CC(C#N)(C2)C3)cc1-c1cnc2c(N)nc(C(F)(F)F)cn12` [Example 287, 3-(8-Amino-6-(trifluoromethyl)imidazo[1,2-a]pyrazin-3-yl)-N-(3-cyanobicyclo[1.1.1]pentan-1-yl)-4-methylbenzenesulfonamide]: the values for the IC50 in experiment [1], in experiment [2] and in experiment [3] were less than 100 nM, less than 100 nM and 100 to 500 nM, respectively.

For `Cc1ccc(S(=O)(=O)NC23CC(C(N)=O)(C2)C3)cc1-c1cnc2c(N)nc(C(F)(F)F)cn12` [Example 288, 3-(3-(8-Amino-6-(trifluoromethyl)imidazo[1,2-a]pyrazin-3-yl)-4-methylphenylsulfonamido)bicyclo[1.1.1]pentane-1-carboxamide trifluoroacetate salt], the IC50 in experiment [1] is 100 to 500 nM; in experiment [2], less than 100 nM; in experiment [3] it was 100 to 500 nM.

On to `Cc1ccc(S(=O)(=O)NC23CC(CN4CCOCC4)(C2)C3)cc1-c1cnc2c(N)nc(C(F)(F)F)cn12` [Example 289, 3-(8-Amino-6-(trifluoromethyl)imidazo[1,2-a]pyrazin-3-yl)-4-methyl-N-(3-(morpholinomethyl)bicyclo[1.1.1]pentan-1-yl)benzenesulfonamide trifluoroacetate salt], for which the figures for the IC50 in experiment [1], in experiment [2] and in experiment [3] were 100 to 500 nM, less than 100 nM and 100 to 500 nM, respectively.

Take `Cc1ccc(S(=O)(=O)NC23CC(C(=O)O)(C2)C3)cc1-c1cnc2c(N)nc(C(F)(F)F)cn12` [Example 290, 3-(3-(8-Amino-6-(trifluoromethyl)imidazo[1,2-a]pyrazin-3-yl)-4-methylphenylsulfonamido)bicyclo[1.1.1]pentane-1-carboxylic acid trifluoroacetate salt]: the IC50 is more than 1000 nM in experiment [1], less than 100 nM in experiment [2] and 500 to 2000 nM in experiment [3].

In the case of `Cc1ccc(S(=O)(=O)NC23CCC(C(N)=O)(C2)C3)cc1-c1cnc2c(N)nc(C(F)(F)F)cn12` [Example 291, 4-(3-(8-Amino-6-(trifluoromethyl)imidazo[1,2-a]pyrazin-3-yl)-4-methylphenylsulfonamido)bicyclo[2.1.1]hexane-1-carboxamide trifluoroacetate salt], the IC50 in experiment [1] is 500 to 1000 nM; in experiment [2] it was less than 100 nM; in experiment [3] it was 100 to 500 nM.

`Cc1ccc(S(=O)(=O)NC23CC(c4nnn[nH]4)(C2)C3)cc1-c1cnc2c(N)nc(C(F)(F)F)cn12` [Example 292, N-(3-(1H-Tetrazol-5-yl)bicyclo[1.1.1]pentan-1-yl)-3-(8-amino-6-(trifluoromethyl)imidazo[1,2-a]pyrazin-3-yl)-4-methylbenzenesulfonamide trifluoroacetate salt]: the values for the IC50 in experiment [1], in experiment [2] and in experiment [3] were more than 1000 nM, less than 100 nM and 500 to 2000 nM, respectively.

As to `Cc1noc(C23CC(NS(=O)(=O)c4ccc(C)c(-c5cnc6c(N)nc(C(F)(F)F)cn56)c4)(C2)C3)n1` [Example 293, 3-(8-Amino-6-(trifluoromethyl)imidazo[1,2-a]pyrazin-3-yl)-4-methyl-N-(3-(3-methyl-1,2,4-oxadiazol-5-yl)bicyclo[1.1.1]pentan-1-yl)benzenesulfonamide trifluoroacetate salt], the results for the IC50 in experiment [1], in experiment [2] and in experiment [3] were 100 to 500 nM, less than 100 nM and 100 to 500 nM, respectively.

`Cc1ccc(S(=O)(=O)NC23CC(c4nccn4C)(C2)C3)cc1-c1cnc2c(N)nc(C(F)(F)F)cn12` [Example 294, 3-(8-Amino-6-(trifluoromethyl)imidazo[1,2-a]pyrazin-3-yl)-4-methyl-N-(3-(1-methyl-1H-imidazol-2-yl)bicyclo[1.1.1]pentan-1-yl)benzenesulfonamide trifluoroacetate salt]: the IC50 was more than 1000 nM in experiment [1], less than 100 nM in experiment [2] and 500 to 2000 nM in experiment [3].

`Cc1ccc(S(=O)(=O)NC23CC(c4ncno4)(C2)C3)cc1-c1cnc2c(N)nc(C(F)(F)F)cn12` [Example 295, N-(3-(1,2,4-Oxadiazol-5-yl)bicyclo[1.1.1]pentan-1-yl)-3-(8-amino-6-(trifluoromethyl)imidazo[1,2-a]pyrazin-3-yl)-4-methylbenzenesulfonamide trifluoroacetate salt]: the values for the IC50 in experiment [1], in experiment [2] and in experiment [3] were more than 1000 nM, less than 100 nM and 500 to 2000 nM, respectively.

As for `Cc1ccc(S(=O)(=O)NC23CC(N4CCOCC4)(C2)C3)cc1-c1cnc2c(N)nc(C(F)(F)F)cn12` [Example 296, 3-(8-Amino-6-(trifluoromethyl)imidazo[1,2-a]pyrazin-3-yl)-4-methyl-N-(3-morpholinobicyclo[1.1.1]pentan-1-yl)benzenesulfonamide trifluoroacetate salt], the IC50 in experiment [1] is 100 to 500 nM; in experiment [2], less than 100 nM; in experiment [3], 500 to 2000 nM.

Broadly, the IC50 is the concentration needed to halve the response being measured.
